Assay results from patent US20230303513A1, “OXOPYRROLIDINE UREA FPR2 AGONISTS” (BRISTOL-MYERS SQUIBB COMPANY, priority 2020, published 2023).
pEC50: −log10 of the molar value.

Experiments:
human FPR1 = human FPR1 (Homo sapiens (Human), UniProt P21462); experiment: FPR1 cyclic adenosine monophosphate (cAMP) assay; type: cell-based; conditions: CHO cells overexpressing human FPR1; forskolin 10 μM, IBMX 200 μM; inhibition of cAMP production, HTRF; read-out: hFPR1 cAMP EC50
Text: (§1) N-formyl peptide receptors (FPRs) are a family of chemo attractant receptors that facilitate leukocyte response during inflammation. FPRs belong to the seven-transmembrane G protein-coupled receptor superfamily and are linked to inhibitory G-proteins (Gi). Three family members (FPR1, FPR2 and FPR3) have been identified in humans and are predominantly found in myeloid cells with varied distribution and have also been reported in multiple organs and tissues. After agonist binding, the FPRs activate a multitude of physiological pathways, such as intra cellular signaling transduction, Ca^21 mobilization and transcription. The family interacts with a diverse set of ligands that includes proteins, polypeptides and fatty acid metabolites which activate both pro-inflammatory and pro-resolution downstream responses. FPR2 and FPR1 Cyclic Adenosine Monophosphate (cAMP) Assays were used to measure the activity of the compounds in this patent.
(§2) FPR2 and FPR1 Cyclic Adenosine Monophosphate (cAMP) Assays. A mixture of forskolin (5 μM final for FPR2 or 10 μM final for FPR1) and IBMX (200 μM final) were added to 384-well Proxiplates (Perkin-Elmer) pre-dotted with test compounds in DMSO (1% final) at final concentrations in the range of 0.020 nM to 100 μM. Chinese Hamster Ovary cells (CHO) overexpressing human FPR1 or human FPR2 receptors were cultured in F-12 (Ham's) medium supplemented with 10% qualified FBS, 250 μg/ml zeocin and 300 μg/ml hygromycin (Life Technologies). Reactions were initiated by adding 2,000 human FPR2 cells per well or 4,000 human FPR1 cells per well in Dulbecco's PBS (with calcium and magnesium) (Life Technologies) supplemented with 0.1% BSA (Perkin-Elmer). The reaction mixtures were incubated for 30 min at room temperature. The level of intracellular cAMP was determined using the HTRF HiRange cAMP assay reagent kit (Cisbio) according to manufacturer's instruction. Solutions of cryptate conjugated anti-cAMP and d2 flurorophore-labelled cAMP were made in a supplied lysis buffer separately. Upon completion of the reaction, the cells were lysed with equal volume of the d2-cAMP solution and anti-cAMP solution. After a 1-h room temperature incubation, time-resolved fluorescence intensity was measured using the Envision (Perkin-Elmer) at 400 nm excitation and dual emission at 590 nm and 665 nm. A calibration curve was constructed with an external cAMP standard at concentrations ranging from 1 μM to 0.1 μM by plotting the fluorescent intensity ratio from 665 nm emission to the intensity from the 590 nm emission against cAMP concentrations. The potency and activity of a compound to inhibit cAMP production was then determined by fitting to a 4-parametric logistic equation from a plot of cAMP level versus compound concentrations.

human FPR2 = human FPR2 (Homo sapiens (Human), UniProt P25090); experiment: FPR2 cyclic adenosine monophosphate (cAMP) assay; type: cell-based; conditions: CHO cells overexpressing human FPR2; forskolin 5 μM, IBMX 200 μM; inhibition of cAMP production, HTRF; read-out: hFPR2 cAMP2 EC50
Text: as §1, §2

Chain of human FPR2 (P25090 whole entry): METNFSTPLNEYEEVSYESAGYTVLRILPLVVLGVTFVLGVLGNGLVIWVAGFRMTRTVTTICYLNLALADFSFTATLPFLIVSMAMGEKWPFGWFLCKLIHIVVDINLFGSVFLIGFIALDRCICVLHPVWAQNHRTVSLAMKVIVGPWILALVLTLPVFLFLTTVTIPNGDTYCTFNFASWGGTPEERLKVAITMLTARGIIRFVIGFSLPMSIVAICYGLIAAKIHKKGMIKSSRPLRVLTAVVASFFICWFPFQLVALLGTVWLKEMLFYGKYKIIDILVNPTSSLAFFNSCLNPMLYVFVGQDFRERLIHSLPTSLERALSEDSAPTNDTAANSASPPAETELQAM
Chain of human FPR1 (P21462 whole entry): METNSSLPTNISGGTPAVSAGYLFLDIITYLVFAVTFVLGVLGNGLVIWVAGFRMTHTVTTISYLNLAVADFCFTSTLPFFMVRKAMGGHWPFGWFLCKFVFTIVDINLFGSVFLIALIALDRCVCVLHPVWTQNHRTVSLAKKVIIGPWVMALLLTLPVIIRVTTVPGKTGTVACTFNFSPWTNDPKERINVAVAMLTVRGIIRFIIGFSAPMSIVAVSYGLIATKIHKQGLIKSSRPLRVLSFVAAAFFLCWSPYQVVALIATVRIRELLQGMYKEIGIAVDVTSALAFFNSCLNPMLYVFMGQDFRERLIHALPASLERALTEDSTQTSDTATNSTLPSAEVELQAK

Row | Structure (SMILES) | pEC50 (human FPR1) | pEC50 (human FPR2)
1 | COCC(CO)n1cccc(N2C[C@@H](c3c(F)cc(OC)cc3F)[C@H](NC(=O)NC3CCc4cc(OC)ccc4C3)C2=O)c1=O (single isomer, unassigned) [Example 2] | 7.40 | 7.70
2 | COCC(CO)n1cccc(N2C[C@@H](c3c(F)cc(OC)cc3F)[C@H](NC(=O)NC3CCc4cc(OC)ccc4C3)C2=O)c1=O (single isomer, unassigned) [Example 3] | 7.70 | 8.22
3 | COc1cc(F)c([C@@H]2CN(c3nccc(NCC4CCOC4)c3C(F)(F)F)C(=O)[C@H]2NC(=O)N[C@H]2CC[C@H](C(F)F)CC2)c(F)c1 (single isomer, unassigned) [Example 73] | < 6.00 | 6.49
4 | COc1cc(F)c([C@@H]2CN(c3nccc(NCC4CCOC4)c3C(F)(F)F)C(=O)[C@H]2NC(=O)N[C@H]2CC[C@H](C(F)F)CC2)c(F)c1 (single isomer, unassigned) [Example 74] | < 6.00 | 7.59
5 | CNC(=O)C(C)Nc1ccnc(N2C[C@@H](c3c(F)cc(OC)cc3F)[C@H](NC(=O)N[C@H]3CC[C@H](C(F)F)CC3)C2=O)c1C(F)(F)F (single isomer, unassigned) [Example 75] | < 6.00 | 7.68
6 | CNC(=O)C(C)Nc1ccnc(N2C[C@@H](c3c(F)cc(OC)cc3F)[C@H](NC(=O)N[C@H]3CC[C@H](C(F)F)CC3)C2=O)c1C(F)(F)F (single isomer, unassigned) [Example 76] | < 6.00 | 7.64
7 | COc1cc(F)c([C@@H]2CN(c3cccn(CC(O)C(F)(F)F)c3=O)C(=O)[C@H]2NC(=O)NC2CCc3cc(OC)ccc3C2)c(F)c1 (single isomer, unassigned) [Example 77] | – | 7.82
8 | COc1cc(F)c([C@@H]2CN(c3cccn(CC(O)C(F)(F)F)c3=O)C(=O)[C@H]2NC(=O)NC2CCc3cc(OC)ccc3C2)c(F)c1 (single isomer, unassigned) [Example 78] | 7.00 | 7.30
9 | COc1cc(F)c([C@@H]2CN(c3c(C)ccn(CCO)c3=O)C(=O)[C@H]2NC(=O)NC2CCc3cc(OC)ccc3C2)c(F)c1 (single isomer, unassigned) [Example 83] | 7.92 | 9.00
10 | COc1cc(F)c([C@@H]2CN(c3c(C)ccn(CCO)c3=O)C(=O)[C@H]2NC(=O)NC2CCc3cc(OC)ccc3C2)c(F)c1 (single isomer, unassigned) [Example 84] | 9.52 | 8.85
11 | CCn1nccc(N2C[C@@H](c3c(F)cc(OC)cc3F)[C@H](NC(=O)NC3CCc4cc(OC)ccc4C3)C2=O)c1=O (single isomer, unassigned) [Example 86] | 9.52 | 8.85
12 | CCn1nccc(N2C[C@@H](c3c(F)cc(OC)cc3F)[C@H](NC(=O)NC3CCc4cc(OC)ccc4C3)C2=O)c1=O (single isomer, unassigned) [Example 87] | 8.32 | 8.49
13 | COc1cc(F)c([C@H]2[C@H](NC(=O)NC3CCc4cc(OC)ccc4C3)C(=O)N(c3cccn(CCO)c3=O)[C@H]2C)c(F)c1 (single isomer, unassigned) [Example 89] | 8.37 | 8.15
14 | COc1cc(F)c([C@H]2[C@H](NC(=O)NC3CCc4cc(OC)ccc4C3)C(=O)N(c3cccn(CCO)c3=O)[C@H]2C)c(F)c1 (single isomer, unassigned) [Example 90] | 8.43 | 8.40
15 | COc1cc(F)c([C@@H]2CN(c3nccc(N4CCC(C)(O)C4)c3C(F)(F)F)C(=O)[C@H]2NC(=O)N[C@H]2CC[C@H](C(F)F)CC2)c(F)c1 (single isomer, unassigned) [Example 91] | 6.11 | 8.11
16 | COc1cc(F)c([C@@H]2CN(c3nccc(N4CCC(C)(O)C4)c3C(F)(F)F)C(=O)[C@H]2NC(=O)N[C@H]2CC[C@H](C(F)F)CC2)c(F)c1 (single isomer, unassigned) [Example 92] | < 5.30 | 7.36
17 | COc1cc(F)c([C@@H]2CN(c3cccn(C(F)F)c3=O)C(=O)[C@H]2NC(=O)NC2CCc3cc(OC)ccc3C2)c(F)c1 (single isomer, unassigned) [Example 94] | 8.92 | 8.80
18 | COc1cc(F)c([C@@H]2CN(c3cccn(C(F)F)c3=O)C(=O)[C@H]2NC(=O)NC2CCc3cc(OC)ccc3C2)c(F)c1 (single isomer, unassigned) [Example 95] | 8.28 | 8.40

Row | Structure (SMILES) | pEC50 (human FPR1) | pEC50 (human FPR2)
19 | COc1cc(F)c([C@@H]2CN(c3nccc(N4C[C@@H]5C[C@H]4CN5C)c3C(F)(F)F)C(=O)[C@H]2NC(=O)N[C@H]2CC[C@H](C(F)F)CC2)c(F)c1 (single isomer, unassigned) [Example 96] | 5.47 | 8.34
20 | COc1cc(F)c([C@@H]2CN(c3nccc(N4C[C@@H]5C[C@H]4CN5C)c3C(F)(F)F)C(=O)[C@H]2NC(=O)N[C@H]2CC[C@H](C(F)F)CC2)c(F)c1 (single isomer, unassigned) [Example 97] | 5.85 | 9.40
21 | COc1cc(F)c([C@@H]2CN(c3nccc(NC4CCOC4)c3C(F)(F)F)C(=O)[C@H]2NC(=O)N[C@H]2CC[C@H](C(F)F)CC2)c(F)c1 (single isomer, unassigned) [Example 99] | 6.14 | 8.21
22 | COc1cc(F)c([C@@H]2CN(c3nccc(NC4CCOC4)c3C(F)(F)F)C(=O)[C@H]2NC(=O)N[C@H]2CC[C@H](C(F)F)CC2)c(F)c1 (single isomer, unassigned) [Example 100] | < 5.00 | 8.05
23 | COc1cc(F)c([C@@H]2CN(c3nccc(N4CCN5CCCC5C4)c3C(F)(F)F)C(=O)[C@H]2NC(=O)N[C@H]2CC[C@H](C(F)F)CC2)c(F)c1 (single isomer, unassigned) [Example 102] | 6.00 | 8.10
24 | COc1cc(F)c([C@@H]2CN(c3nccc(N4CCN5CCCC5C4)c3C(F)(F)F)C(=O)[C@H]2NC(=O)N[C@H]2CC[C@H](C(F)F)CC2)c(F)c1 (single isomer, unassigned) [Example 103] | 5.68 | 7.77
25 | COc1cc(F)c([C@@H]2CN(c3nccc(N4CCOCC4)c3C(F)(F)F)C(=O)C2NC(=O)N[C@H]2CC[C@H](C(F)F)CC2)c(F)c1 (stereo partly drawn) [Example 1, 1-((3S,4R)-4-(2,6-Difluoro-4-methoxyphenyl)-1-(4-morpholino-3-(trifluoromethyl)pyridin-2-yl)-2-oxopyrrolidin-3-yl)-3-((1r,4S)-4-(difluoromethyl)cyclohexyl) urea] | 5.17 | 7.83
26 | COCCn1cccc(N2C[C@@H](c3ccc(OC)cc3)[C@H](NC(=O)NC3CCc4cc(Cl)ccc4C3)C2=O)c1=O (some centres unmarked) [Example 5] | – | 9.70
27 | CCn1cccc(N2C[C@@H](c3ccc(OC)cc3)[C@H](NC(=O)NC3CCc4cc(Cl)ccc4C3)C2=O)c1=O (some centres unmarked) [Example 6] | 10.00 | 9.40
28 | COCCn1ccc(C)c(N2C[C@@H](c3c(F)cc(OC)cc3F)[C@H](NC(=O)NC3CCc4cc(OC)ccc4C3)C2=O)c1=O (some centres unmarked) [Example 7] | 9.15 | 9.30
29 | COc1cc(F)c([C@@H]2CN(c3c(OC)ccn(C)c3=O)C(=O)[C@H]2NC(=O)NC2CCc3cc(Cl)ccc3C2)c(F)c1 (some centres unmarked) [Example 8] | 9.30 | 9.22
30 | CCn1cccc(N2C[C@@H](c3ccc(OC)cc3)[C@H](NC(=O)NC3CCc4cc(Cl)ccc4C3)C2=O)c1=O (some centres unmarked) [Example 9] | 8.22 | 9.15
31 | COCCn1cccc(N2C[C@@H](c3ccc(OC)cc3)[C@H](NC(=O)NC3CCc4cc(OC)ccc4C3)C2=O)c1=O (some centres unmarked) [Example 11] | 10.00 | 9.10
32 | CCn1cccc(N2C[C@@H](c3ccc(OC)cc3)[C@H](NC(=O)NC3CCc4cc(OC)ccc4C3)C2=O)c1=O (some centres unmarked) [Example 12] | 9.10 | 9.05
33 | CCn1cccc(N2C[C@@H](c3ccc(OC)cc3)[C@H](NC(=O)NC3CCc4cc(OC)ccc4C3)C2=O)c1=O (some centres unmarked) [Example 13] | – | 8.89
34 | COCCn1cccc(N2C(=O)[C@@H](NC(=O)NC3CCc4cc(OC)ccc4C3)[C@H](c3c(F)cc(OC)cc3F)[C@@H]2C)c1=O (some centres unmarked) [Example 26] | – | 8.55
35 | COc1cc(F)c([C@@H]2CN(c3cccn(CC(O)C(F)(F)F)c3=O)C(=O)[C@H]2NC(=O)NC2CCc3cc(OC)ccc3C2)c(F)c1 (some centres unmarked) [Example 79] | – | 8.14
